Data from patent US12398107B2, “Fungicidal nitroanilino substituted pyrazoles” (FMC Corporation, priority 2018, dated 2025).

Legend:
Format in all cases: in vivo
Septoria tritici = assay: Test A: wheat leaf blotch, preventive spray on wheat seedlings; settings: 50 ppm, 100 = 100% disease control, 0 = no control relative to controls; for pest or weed control at 50 ppm: Zymoseptoria tritici, read-out: Test A disease control rating (wheat leaf blotch)
Description: (§1) General protocol for preparing test suspensions for Tests A-F: the test compounds were first dissolved in acetone in an amount equal to 3% of the final volume and then suspended at the desired concentration (in ppm) in acetone and purified water (50/50 mix by volume) containing 250 ppm of the surfactant PEG400 (polyhydric alcohol esters). The resulting test suspensions were then used in Tests A-F. The test solution was sprayed to the point of run-off on wheat seedlings. The following day the seedlings were inoculated with a spore suspension of Septoria tritici (the causal agent of wheat leaf blotch) and incubated in a saturated atmosphere at 24° C. for 48 h, and then moved to a growth chamber at 20° C. for 17 days, after which time disease ratings were made. A rating of 100 indicates 100% disease control and a rating of 0 indicates no disease control (relative to the controls). A dash (-) indicates the compound was not tested.

[1] = system: Puccinia recondita f. sp. tritici; assay: Test B: wheat leaf rust, preventive spray on wheat seedlings; settings: 50 ppm, 100 = 100% disease control, 0 = no control relative to controls; for pest or weed control at 50 ppm: read-out: Test B disease control rating (wheat leaf rust)
Description: as §1, with “Puccinia recondita f. sp.” for “Septoria”, “rust)” for “blotch)”, “20°” for “24°”, “24” for “48”, “7” for “17”

[2] = system: Blumeria graminis f. sp. tritici; assay: Test C: wheat powdery mildew, preventive spray on wheat seedlings; settings: 50 ppm, rated after 8 days, 100 = 100% disease control, 0 = no control; for pest or weed control at 50 ppm: Blumeria graminis, 192 h, read-out: Test C disease control rating (wheat powdery mildew)
Description: General protocol for preparing test suspensions for Tests A-F: the test compounds were first dissolved in acetone in an amount equal to 3% of the final volume and then suspended at the desired concentration (in ppm) in acetone and purified water (50/50 mix by volume) containing 250 ppm of the surfactant PEG400 (polyhydric alcohol esters). The resulting test suspensions were then used in Tests A-F. The test suspension was sprayed to the point of run-off on wheat seedlings. The following day the seedlings were inoculated with a spore dust of Blumeria graminis f. sp. tritici, (also known as Erysiphe graminis f. sp. tritici, the causal agent of wheat powdery mildew) and incubated in a growth chamber at 20° C. for 8 days, after which time visual disease ratings were made. A rating of 100 indicates 100% disease control and a rating of 0 indicates no disease control (relative to the controls). A dash (-) indicates the compound was not tested.

Phakopsora pachyrhizi = assay: Test D: Asian soybean rust, preventive spray on soybean seedlings; settings: 50 ppm, 100 = 100% disease control, 0 = no control; for pest or weed control at 50 ppm: Phakopsora pachyrhizi, read-out: Test D disease control rating (Asian soybean rust)
Description: General protocol for preparing test suspensions for Tests A-F: the test compounds were first dissolved in acetone in an amount equal to 3% of the final volume and then suspended at the desired concentration (in ppm) in acetone and purified water (50/50 mix by volume) containing 250 ppm of the surfactant PEG400 (polyhydric alcohol esters). The resulting test suspensions were then used in Tests A-F.
The test solution was sprayed to the point of run-off on soybean seedlings. The following day the seedlings were inoculated with a spore suspension of Phakopsora pachyrhizi (the causal agent of Asian soybean rust) and incubated in a saturated atmosphere at 22° C. for 24 h and then moved to a growth chamber at 22° C. for 8 days, after which time visual disease ratings were made.
A rating of 100 indicates 100% disease control and a rating of 0 indicates no disease control (relative to the controls). A dash (-) indicates the compound was not tested.

Botrytis cinerea = assay: Test E: tomato Botrytis, preventive spray on tomato seedlings; settings: 50 ppm, 100 = 100% disease control, 0 = no control; for pest or weed control at 50 ppm: Botrytis cinerea, read-out: Test E disease control rating (tomato Botrytis)
Description: (§2) General protocol for preparing test suspensions for Tests A-F: the test compounds were first dissolved in acetone in an amount equal to 3% of the final volume and then suspended at the desired concentration (in ppm) in acetone and purified water (50/50 mix by volume) containing 250 ppm of the surfactant PEG400 (polyhydric alcohol esters). The resulting test suspensions were then used in Tests A-F. The test suspension was sprayed to the point of run-off on tomato seedlings. The following day the seedlings were inoculated with a spore suspension of Botrytis cinerea (the causal agent of tomato Botrytis) and incubated in a saturated atmosphere at 20° C. for 48 h, and then moved to a growth chamber at 24° C. for 3 days, after which time visual disease ratings were made. A rating of 100 indicates 100% disease control and a rating of 0 indicates no disease control (relative to the controls). A dash (-) indicates the compound was not tested.

Alternaria solani = assay: Test F: tomato early blight, preventive spray on tomato seedlings; settings: 50 ppm, 100 = 100% disease control, 0 = no control; for pest or weed control at 50 ppm: Alternaria solani, read-out: Test F disease control rating (tomato early blight)
Description: as §2, with “Alternaria solani” for “Botrytis cinerea”, “early blight)” for “Botrytis)”, “27°” for “20°”, “20°” for “24°”

Row | SMILES | Test A disease control rating (wheat leaf blotch) (Septoria tritici) [%] | Test B disease control rating (wheat leaf rust) [1] [%] | Test C disease control rating (wheat powdery mildew) [2] [%] | Test D disease control rating (Asian soybean rust) (Phakopsora pachyrhizi) [%] | Test E disease control rating (tomato Botrytis) (Botrytis cinerea) [%] | Test F disease control rating (tomato early blight) (Alternaria solani) [%] | pest or weed control at 50 ppm (Septoria tritici) [%] | pest or weed control at 50 ppm [1] [%] | pest or weed control at 50 ppm [2] [%] | pest or weed control at 50 ppm (Phakopsora pachyrhizi) [%] | pest or weed control at 50 ppm (Botrytis cinerea) [%] | pest or weed control at 50 ppm (Alternaria solani) [%]
1 | Cc1nn(C)c(Nc2c(Cl)cccc2[N+](=O)[O-])c1-c1c(F)cccc1F [Compound 77] | 100 | 100 | 95 | 73 | 72 | 9 | – | – | – | – | – | –
2 | COc1ccc(Nc2c(-c3c(F)cc(F)cc3Br)c(C)nn2C)c([N+](=O)[O-])c1 [Compound 164] | 100 | 100 | 98 | 0 | 100 | 99 | – | – | – | – | – | –
3 | Cc1nn(C)c(Nc2c(F)cccc2[N+](=O)[O-])c1-c1c(F)cc(F)cc1Br [Compound 1, 4-(2-bromo-4,6-difluorophenyl)-N-(2-fluoro-6-nitrophenyl)-1,3-dimethyl-1H-pyrazol-5-amine] | – | – | – | – | – | – | 100 | 100 | 100 | 84 | 100 | 99
4 | Cc1nn(C)c(Nc2c(F)cccc2[N+](=O)[O-])c1-c1c(F)cccc1Cl [Compound 25] | 100 | 100 | 99 | 98 | 100 | 98 | – | – | – | – | – | –
5 | Cc1nn(C)c(Nc2ccc(OCC(F)F)cc2[N+](=O)[O-])c1-c1ccc(F)cc1Cl [Compound 36] | 100 | 89 | 56 | 25 | 100 | 0 | – | – | – | – | – | –
6 | Cc1nn(C)c(Nc2c(Cl)cc(F)cc2[N+](=O)[O-])c1-c1ccc(Cl)cc1F [Compound 176] | 100 | 97 | 0 | 0 | 9 | 0 | – | – | – | – | – | –
7 | Cc1cccc([N+](=O)[O-])c1Nc1c(-c2ccc(F)cc2F)c(C)nn1C [Compound 177] | 100 | 97 | 50 | 0 | 100 | 9 | – | – | – | – | – | –
8 | COc1cc(F)c(-c2c(C)nn(C)c2Nc2c(F)cc(F)cc2[N+](=O)[O-])c(F)c1 [Compound 84] | 100 | 100 | 99 | 48 | 90 | 99 | – | – | – | – | – | –
9 | CCc1nn(C)c(Nc2c(F)cc(Br)cc2[N+](=O)[O-])c1-c1ccc(F)cc1F [Compound 171] | 100 | 91 | 99 | 0 | 97 | 88 | – | – | – | – | – | –
10 | Cc1cc(F)c(Nc2c(-c3ccc(C#N)cc3Cl)c(C)nn2C)c([N+](=O)[O-])c1 [Compound 127, 3-chloro-4-[5-[(2-fluoro-4-methyl-6-nitrophenyl)amino]-1,3-dimethyl-1H-pyrazol-4-yl]benzonitrile] | – | – | – | – | – | – | 100 | 99 | 92 | 96 | 100 | 100
